Where two headings read alike, the source gives them in different places.
Assays:
Fusarium proliferatum = assay: Example I: production of fumonisin FB1 by Fusarium proliferatum (microtitre plates); assay type: cell-based; conditions: 120 h
Leptosphaeria nodorum = assay: Example Q: in vivo test on Leptosphaeria nodorum (glume blotch in wheat/protective); conditions: Parastagonospora nodorum, 192 h, wheat, protective, assessment 8 days after inoculation, read-out: % Wirkungsgrad
Protocol: (§1) Solvent: 49 parts by weight N,N-dimethylacetamide Emulsifier: 1 part by weight alkylaryl polyglycol ethers For the preparation of a suitable active substance preparation, 1 part by weight of active substance is mixed with the stated quantities of solvent and emulsifier and the concentrate is diluted to the desired concentration with water. For the testing for protective activity, young plants are sprayed with the active substance preparation at the stated application dosage. After drying of the spray coating, the plants are sprayed with spores with a spore suspension of Leptosphaeria nodorum. […] 8 days after the inoculation, the assessment takes place.

Sphaerotheca fuliginea [1] = assay: Example L: in vivo test on Sphaerotheca fuliginea (powdery mildew on cucumber/protective); conditions: Podosphaera fuliginea, 168 h, cucumber, protective, assessment 7 days after inoculation, read-out: % Wirkungsgrad
In short: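 Young cucumber plants sprayed at stated dosage with compound in DMF/alkylaryl polyglycol ether emulsifier diluted in water; inoculated with S. fuliginea spores one day later. Kept in greenhouse at 70% relative humidity, 23° C; protective activity assessed 7 days after inoculation.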

Fusarium graminearum [2] = assay: microbe, parasite or virus in culture; assay type: cell-based
Venturia inaequalis = assay: Example O: in vivo test on Venturia inaequalis (apple scab/protective); conditions: 240 h, protective, assessment 10 days after inoculation, read-out: % Wirkungsgrad
In short: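 Protective test: active substance mixed with solvent and alkylaryl polyglycol ether emulsifier, diluted with water, and sprayed on young plants at the stated dosage before Venturia inaequalis inoculation. Scab assessed 10 days after inoculation.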

Rhynchosporium secalis = assay: Example S: in vivo test on Rhynchosporium secalis (leaf scald in barley/protective); conditions: 336 h, barley, protective, 1000 ppm active substance, assessed 14 days after inoculation, read-out: % Wirkungsgrad (activity level)
Protocol: as §1, with “Rhynchosporium secalis.” for “Leptosphaeria nodorum.”, “14” for “8”

Alternaria solani = assay: Example M: in vivo test on Alternaria solani (leaf blotch disease/tomato/protective); conditions: 168 h, tomato, protective, 500 ppm active substance, assessed 7 days after inoculation, read-out: % Wirkungsgrad (activity level)
In short: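 Protective test: young tomato plants sprayed with active substance (in DMF with alkylaryl polyglycol ether emulsifier, diluted in water) at the stated dosage, then inoculated with Alternaria solani. Disease assessed 7 days after inoculation.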

[3] = test system: Fusarium nivale (var. majus); assay: whole plant or invertebrate; assay type: in vivo; conditions: Microdochium nivale, in Triticum aestivum, 120 h, read-out: % Wirkungsgrad (activity level)
Fusarium graminearum [4] = assay: whole plant or invertebrate; assay type: in vivo; conditions: in Hordeum vulgare, 120 h, read-out: % Wirkungsgrad (activity level)
Septoria tritici = assay: Example R: in vivo test on Septoria tritici (leaf blotch in wheat/protective); conditions: Zymoseptoria tritici, 504 h, wheat, protective, 1000 ppm active substance, assessed 21 days after inoculation, read-out: % Wirkungsgrad (activity level)
Protocol: as §1, with “with” for “with spores with”, “Septoria tritici.” for “Leptosphaeria nodorum.”, “21” for “8”

Botrytis cinerea [5] = assay: Example P: in vivo test on Botrytis cinerea (gray mould on bean/protective); conditions: 48 h, bean, protective, 250 ppm active substance, assessed 2 days after inoculation, read-out: % Wirkungsgrad (activity level)
In short: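 Protective test: young bean plants sprayed with the active substance preparation (emulsifier-based concentrate diluted in water) at the stated dosage. Once dry, each leaf received 2 agar pieces bearing Botrytis cinerea. Infection blotch size assessed 2 days after inoculation.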

[6] = test system: Mycosphaerella graminicola; assay: Example G: in vivo test on Mycosphaerella graminicola (wheat leaf blotch disease); conditions: Zymoseptoria tritici, wheat plants sprayed 24 hours before inoculation, scored after 21 to 28 days, read-out: % Wirkungsgrad
Protocol: In Vivo Test on Mycosphaerella Graminicola (Wheat Leaf Blotch Disease) An aqueous suspension of the active substance was prepared by homogenization of a mixture of acetone/Tween/dimethyl sulphoxide and subsequent dilution with water to the desired concentration. Wheat plants (variety: Scipion) are sown in cultivation dishes on a peat-pozzolanic earth substrate (50/50) at 12° C. and sprayed at the first-leaf stage (10 cm size) with the aqueous suspension described above. As a control, plants are sprayed with an aqueous solution with no active substance. After 24 hours the plants are inoculated by spraying with an aqueous suspension of Mycosphaerella graminicola spores (500,000 spores per ml). The spores are derived from a 7 day-old culture. […] After 21 to 28 days they are scored in comparison with the control plants.

Botrytis cinerea [7] = assay: Example B: in vivo test on Botrytis cinerea (grey mould on cucumbers); conditions: cucumber plants sprayed 24 hours before inoculation, scored after 5-7 days, read-out: % Wirkungsgrad
Protocol: In Vivo Test on Botrytis Cinerea (Grey Mould on Cucumbers) An aqueous suspension of the active substance was prepared by homogenization of a mixture of acetone/Tween/dimethyl sulphoxide and subsequent dilution with water to the desired concentration. Cucumber plants (variety: Vert petit de Paris) are sown in cultivation dishes on a peat-pozzolanic earth substrate (50/50) at 18-20° C. and sprayed at the cotyledon stage Z11 with the aqueous suspension described above. As a control, plants are sprayed with an aqueous solution with no active substance. […] The spores are derived from a 15 day-old culture which are suspended in the following nutrient solution: • 20 g/l gelatine • 50 g/l D-fructose • 2 g/l NH4NO3 • 1 g/l KH2PO4 The inoculated cucumber plants are kept for 5-7 days in a climatic chamber at […] After 5-7 days they are scored in comparison with the control plants.

Sphaerotheca fuliginea [8] = assay: Example D: in vivo test on Sphaerotheca fuliginea (powdery mildew on cucumber); conditions: Podosphaera fuliginea, 288 h, cucumber plants sprayed 24 hours before inoculation, scored after 12 days, read-out: % Wirkungsgrad
Protocol: In Vivo Test on Sphaerotheca Fuliginea (Powdery Mildew on Cucumber) An aqueous suspension of the active substance was prepared by homogenization of a mixture of acetone/Tween/dimethyl sulphoxide and subsequent dilution with water to the desired concentration. Cucumber plants (variety: Vert petit de Paris) are sown in cultivation dishes on a peat-pozzolanic earth substrate (50/50) at 20/23° C. and at the cotyledon stage Z10 sprayed with the aqueous suspension described above. As a control, plants are sprayed with an aqueous solution with no active substance. After 24 hours the plants are inoculated by spraying with an aqueous suspension of Sphaerotheca fuliginea spores (100,000 spores per ml). The spores are derived from a contaminated plant. The inoculated cucumber plants are incubated at ca. 20/25° C. at a relative atmospheric humidity of 60/70%. After 12 days they are scored in comparison with the control plants.

Plasmopara viticola = assay: Example N: in vivo test on Plasmopara viticola (downy mildew, vine/protective); conditions: 144 h, vine, protective, assessment 6 days after inoculation, read-out: % Wirkungsgrad
Protocol: Emulsifier: 1 part by weight alkylaryl polyglycol ethers For the preparation of a suitable active substance preparation, 1 part by weight of active substance is mixed with the stated quantities of solvent and emulsifier and the concentrate is diluted to the desired concentration with water. For the testing for protective activity, young plants are sprayed with the active substance preparation at the stated application dosage. […] The plants are then moistened and placed in an incubation cabin for 1 day. 6 days after the inoculation, the assessment takes place.

[9] = Fusarium proliferatum growth, OD 620, 5 days, read-out: % Inhibition des Pilzwachstums bei 50 μM
[10] = Fusarium proliferatum, 5 days at 20° C., HPLC-MS/MS, read-out: % Inhibition der FB1 produktion bei 50 μM
[11] = 72 h, read-out: % Inhibition des Pilzwachstums bei 50 μM
[12] = 168 h, read-out: % Inhibition der DON/AcDON produktion bei 50 μM
[13] = LogPA (logP of the stated pure compound or, in a mixture, of the main isomer, 1-substituted 3-aryl-1H-pyrazole)

Compound | inhibition at 50 µM (Fusarium proliferatum; [9]) | inhibition at 50 µM (Fusarium proliferatum; [10]) | pest or weed control at 1000 ppm (Leptosphaeria nodorum) | pest or weed control at 500 ppm (Sphaerotheca fuliginea [1]) | inhibition at 50 µM (Fusarium graminearum [2]; [11]) | inhibition at 50 µM (Fusarium graminearum [2]; [12]) | pest or weed control at 100 ppm (Venturia inaequalis) | pest or weed control at 1000 ppm (Rhynchosporium secalis) | chromatographic logP (physchem; [13]) | pest or weed control at 500 ppm (Alternaria solani) | pest or weed control at 1000 ppm [3] | pest or weed control at 1000 ppm (Fusarium graminearum [4]) | pest or weed control at 1000 ppm (Septoria tritici) | pest or weed control at 250 ppm (Botrytis cinerea [5]) | chromatographic logP (physchem; LogPA) | pest or weed control at 500 ppm [6] | pest or weed control at 500 ppm (Botrytis cinerea [7]) | pest or weed control at 500 ppm (Sphaerotheca fuliginea [8]) | pest or weed control at 100 ppm (Plasmopara viticola)
CCC(=O)Nc1cc(-c2cn(C(C)CC)nc2-c2ccc(F)cc2)ccn1 (stereo not shown) [Compound 164] | 97% | 100% | 93% | 100% | 100% | 99% | 97% | 100% | 2.46 | 95% | 100% | 100% | 100% | – | – | – | – | – | –
CC(C)C(=O)Nc1cc(-c2cn(CC(F)F)nc2-c2ccc(F)cc2)ccn1 [Compound 218] | 79% | 100% | 93% | 100% | – | – | 95% | 100% | – | 95% | 92% | 100% | 100% | 98% | 2.29 | – | – | – | –
CC(C)Cn1cc(-c2ccncc2)c(-c2c(F)cccc2F)n1 [Compound 13] | – | – | – | – | – | – | – | – | 1.62 | – | – | – | – | – | – | 95% | 100% | 90% | –
CC(C)n1cc(-c2ccnc(NC(=O)[C@H](C)O)c2)c(-c2ccc(F)cc2)n1 [Compound 192] | – | – | 86% | 85% | – | – | 95% | 71% | – | 100% | 100% | 100% | 100% | 100% | 2.14 | – | – | – | 94%
CCC(=O)Nc1cc(-c2cn(CC3CC3)nc2-c2ccc(F)cc2)ccn1 [Compound 214] | 96% | 100% | 71% | 100% | 100% | 93% | 88% | 100% | – | 95% | 100% | 100% | 100% | 100% | 2.2 | – | – | – | 88%
